How the values were obtained:
[1] = below pH 5; cited from earlier work
[2] = tested on: Lb. fermentum; assay: Wheat mash fermentation contaminated with Lb. fermentum; type: cell-based, Lactobacillus fermentum; settings: Example 5, inoculated 10^7 CFU/mL; Penicillin G 0.25 ppm, Virginiamycin 0.5 ppm, hop products at effective concentration
Method: The clean breed strains were kept frozen at −101.2° F. in MRS-broth containing 8%-glycerol and were inoculated from there in 10 mL cap tubes containing 2 mL MRS-broth. The headspace of each tube was flushed with filter sterilized (0.45 μm pore size membrane filter) CO2-gas and the caps were sealed with paraffin wax coated film. The tubes were incubated in a controlled environmental shaker at 100 rpm at 86° F. (Lb. brevis) and 96.8° F. (Lb. fermentum). After 12 hours 1 mL of these preparatory cultures were each transferred into 10 mL cap tubes containing 9 mL MRS-broth and incubated for another 24 hours, afterwards transferred to 100 mL screw cap flasks containing 90 mL of MRS-broth and again incubated at the appropriate temperature for 24 hours. These portions were transferred to 1 L screw cap flasks, containing 750 mL MRS-broth and were again incubated for 24 hours.
For inoculation of wheat mash the bacterial cells were aseptically harvested in sterile centrifugal tubes by centrifugation at 10,200×g for 15 minutes at 4° C. […]
Cell numbers of the organisms were estimated using a Beck photometer. […] Appropriate quantities of the concentrated cell suspension were added to 500 g quantities of wheat mash in laboratory fermentation flasks to give initial viable cell numbers of 10^7 CFU/mL. […]

[3] = tested on: lactobacillus; settings: stated as fact for comparison with ISOHOP; cited from earlier work
[4] = tested on: Lb. fermentum; assay: Sugar beet molasses wort fermentation contaminated with Lb. fermentum; type: cell-based, Lactobacillus fermentum; settings: 10^6 CFU/mL, Virginiamycin 0.5 ppm
Method: (§1) The clean breed strains were kept frozen at −101.2° F. in MRS-broth containing 8%-glycerol and were inoculated from there in 10 mL cap tubes containing 2 mL MRS-broth. The headspace of each tube was flushed with filter sterilized (0.45 μm pore size membrane filter) CO2-gas and the caps were sealed with paraffin wax coated film. The tubes were incubated in a controlled environmental shaker at 100 rpm at 86° F. (Lb. brevis) respectively 96.8° F. (Lb. fermentum). […] A filter sterilized (0.45 μm pore size membrane filter) 5 μl aliquot of the MRS-cell suspension for inoculation was determined by high performance liquid chromatography using a ProntoSIL 120-3-C18 AQ column which analyzes sugars, organic acids and alcohol, making sure glucose in the MRS-medium would be totally consumed and determining the amount of lactic acid an acetic acid added to fresh wort. Appropriate quantities of cell suspension were added to give a total of 500 g mash in laboratory fermentation flasks and initial viable bacterial cell numbers of 10^6 CFU/mL mash. The pH-value of the wort was afterwards readjusted to pH 5.2 if necessary. […]
(§2) The content of sucrose in beet molasses was determined by polarimeter after clarification with lead acetate. […]

[5] = tested on: Lb. brevis; assay: Sugar beet molasses wort fermentation contaminated with Lb. brevis; type: cell-based, Lactobacillus brevis; settings: 10^6 CFU/mL, Virginiamycin 0.5 ppm
Method: as §1, §2

Compound	stability [1]	viable cells after fermentation, Lb. fermentum [2]	reduction of bacteria count [3] [%]	viable cells after fermentation, Lb. fermentum [4]	viable cells after fermentation, Lb. brevis [5]
CC1(C)S[C@@H]2[C@H](NC(=O)Cc3ccccc3)C(=O)N2[C@H]1C(=O)O [Penicillin G]	rather poor stability	practically no effect	–	–	–
Virginiamycin	–	10^3 cells/mL	50	no viable cells	no viable cells

Source: patent US20040044087A1, “Use of hop acids in fuel ethanol production” (priority 1999, published 2004)
